Data: patent publication US10300000B2, “Inhibition of melanogenesis by chemically modified curcumins” (The Research Foundation for The State University of New York, priority 2016, dated 2019)
Like-named read-outs stand apart in the source and are kept apart here. Blank lines part the entries; values can stand above or below the compound they belong to.

Legend:
[1] = test system: HEM-DP cells; assay: Melanin content quantification in human epidermal melanocytes; assay type: cell-based; details: 48 hours
Description: Primary cultures of human epidermal melanocytes from a darkly pigmented donor were seeded at 2.2×10^5 cells/well in 1.5 ml media in 12-well plates and incubated for 48 hours. The test compounds were added to cultures and controls were treated with 0.16% DMSO, and further incubated for another 48 hours. For evaluation of melanin content, cells in the wells were trypsinized and cell pellets were washed in PBS. After aspiration, 250 μL of 1N NaOH was added and heated to 70° C. to solubilize melanin. The aliquots were then transferred to a 96-well plate and absorbance was read at 475 nm using microplate reader. A portion of the lysate was used to evaluate total protein content using […] bincinchonic acid (BCA) assay (Pierce BCA kit, Thermo Scientific). The absorbance of melanin was normalized to the total protein content for each lysate and reported as % of control.

[2] = test system: αMSH-stimulated B16F10 cells; assay: Melanin content in αMSH-stimulated B16F10 cells; assay type: cell-based, mouse; design: dose or concentration left out as unconfirmed; details: αMSH-stimulated B16F10, 48 hours
Description: B16F10 cells were seeded at 1×10^5 cells/well in 12-well plates and incubated for 24 hours. The test compounds were then added in presence or absence of αMSH (100 nM), and further incubated for another 48 hours. For evaluation of melanin content, cells were trypsinized, washed in PBS and then 250 μL of 1N NaOH was added and heated to 70° C. to solubilize melanin. The aliquots were then transferred to a 96-well plate and absorbance was read at 475 nm using microplate reader. The absorbance of melanin was normalized by total protein contents and reported as % of control.

[3] = test system: B16F10 mouse melanoma cells; assay type: cell-based; details: for cell viability: mouse, 48 h
Description: In order to test the four CMCs (CMC2.14, CMC2.24, CMC2.5 and CMC2.23) alongside PC and THC, for their effects on melanin content, we first screened their nontoxic concentrations using MTS cytotoxicity (Promega CellTiter Aqueous One) assay. MTS is a tetrazolium salt which is reduced to purple colored formazan upon reaction with mitochondrial dehydrogenases. Briefly, B16F10 cells were seeded at 4×10^3 cells/well in 96-well plates for 24 hrs. […] Controls were treated with 0.16% DMSO. At the end of 48 hours, medium was aspirated and replaced by 100 μl of fresh media. MTS (20 μl) was added and incubated for 40 minutes and absorbance read at 490 nm using a Versamax® microplate reader. Cell viability was calculated from the absorbance values relative to control groups and expressed in %.

[4] = test system: B16F10 cells; assay: Melanin content quantification in B16F10 cells; assay type: cell-based, mouse; details: Mus musculus, B16-F10
Description: B16F10 cells were seeded at 1×10^5 cells/well in 1.5 ml media in 12-well plates and incubated for 24 hours. […] For quantification of melanin content, cells were trypsinized and cell pellets were washed in PBS. Cell pellets were also visually observed for lightening of the intracellular pigment. After aspiration, 250 μL of 1N NaOH was added and heated to 70° C. to solubilize melanin. The aliquots were then transferred to a 96-well plate and absorbance was read at 475 nm using a microplate reader. A portion of the lysate was used to evaluate total protein content using BCA assay. The melanin absorbance was normalized by total protein content and expressed as % of control.

[5] = Copper chelating activity assay (pyrocatechol violet); assay type: physicochemical; details: PV dye method
Description: Metal ion chelation activity can be detected by pyrocatechol violet indicator assay which is similar to that reported in other studies with some modifications [Baek, S-H. et al. 2015]. Briefly, 100 μl of sample containing different concentrations of solutes were mixed with 50 mM sodium acetate buffer (pH 6.0) in a 96 well plate. Control group consisted of buffer only; KA at 500 μM was used as a positive control. Copper sulfate (2 mM; 10 μl) was added to the samples and incubated for 10 minutes. 10 μl of 2 mM pyrocatechol violet was then added and the plate was further incubated for 20 minutes. The absorbance was read at 632 nm using a microplate reader (Versamax). Lower absorbance compared to control was indicative of copper chelation.

[6] = test system: intracellular ROS in B16F10 cells; assay: Intracellular ROS assay (H2DCFDA) in B16F10 cells; assay type: cell-based, mouse; details: 48 hours
Description: Intracellular ROS generation was quantified using 2′,7′-dichlorodihydrofluorescein diacetate (H2DCFDA), a non-fluorescent dye which is trapped intracellularly by cleavage by intracellular esterases after reaction with reactive oxygen species (ROS); only the product, DCF, is fluorescent. For measuring intracellular ROS, B16F10 cells were seeded in 24 well plates at 4×10^4 cells/well. After 24 hours, media was aspirated and PC, THC and CMCs were added to the wells at different concentrations and further incubated for 48 hours. At the end of the incubations, the media was aspirated and cells were washed with PBS. DCFDA (Molecular Probes) was dissolved in DMSO to make 10 mM stock. DCFDA dye working stock (50 μM) was prepared by diluting the stock in DMEM (serum-free, phenol-red free and sodium pyruvate free) media and added to cells and further incubated for 45 minutes at 37° C. The cells were then washed with DPBS and fluorescence was read in bottom read mode, using a fluorescence microplate reader (Gemini EM Spectramax, Molecular Devices) set to excitation and emission wavelengths of 485 nm and 535 nm, respectively. Data was expressed as relative fluorescence % of treated vs. control.

[7] = test system: MITF; assay: MITF protein levels by cell-based ELISA in B16F10 cells; design: species or system mouse; details: B16F10, 10 μM, 48 hours
Description: MITF is the master regulator of melanogenesis and a known transcription factor for tyrosinase gene. The effects of PC and CMCs on micropthalmia transcription factor (MITF) proteins levels were assayed using a cell-based ELISA (LifeSpan Biosciences, Seattle). Briefly, B16F10 cells were cultured in a 96-well plate at 1×10^4 cells/well for 24 hours and then media was replaced with fresh media containing compounds in 0.1% DMSO for further 48 hours. The cells were then fixed and subsequent steps were conducted based on manufacturer instructions. The absorbance of MITF expression levels were normalized by absorbance of crystal violet stain (0.05%) and data was reported as % of control.

[8] = biological target: T1, cellular tyrosinase in HEM-DP cells (Homo sapiens, UniProt P14679); assay: Intracellular tyrosinase activity in human melanocytes; assay type: cell-based; details: 48 hours
T1 construct: endogenous in cells; host or cells: HEM-DP (primary human epidermal melanocytes, darkly pigmented donor)
T1 sequence (P14679 19-529): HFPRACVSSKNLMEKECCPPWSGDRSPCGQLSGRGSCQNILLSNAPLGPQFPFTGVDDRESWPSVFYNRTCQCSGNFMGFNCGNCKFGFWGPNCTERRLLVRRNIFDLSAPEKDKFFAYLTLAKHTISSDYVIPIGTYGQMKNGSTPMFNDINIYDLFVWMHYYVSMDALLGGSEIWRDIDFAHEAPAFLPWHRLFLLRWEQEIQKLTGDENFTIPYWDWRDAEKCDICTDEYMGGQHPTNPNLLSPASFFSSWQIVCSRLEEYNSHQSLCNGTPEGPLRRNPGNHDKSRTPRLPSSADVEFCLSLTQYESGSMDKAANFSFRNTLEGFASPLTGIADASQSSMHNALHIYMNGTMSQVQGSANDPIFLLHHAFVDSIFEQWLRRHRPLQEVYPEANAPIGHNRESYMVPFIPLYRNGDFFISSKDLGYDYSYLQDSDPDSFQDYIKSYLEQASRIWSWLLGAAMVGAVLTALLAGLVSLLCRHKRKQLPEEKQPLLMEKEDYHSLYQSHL
Description: We quantitated the cellular tyrosinase activity of human melanocytes based on established methods. Briefly, human epidermal melanocytes from a darkly pigmented donor (HEM-DP) were cultured in 12-well tissue culture plates at density of 1.5×10^5 cells/well. After 48 hrs. media was changed and test compounds were added, and further incubated for 48 hrs. At the end of treatments, cells were trypsinized and cell pellets were washed in PBS and lysed with lysis buffer under ice for 30 minutes and then centrifuged to remove cellular debris. 50 μl of lysates were then aliquoted in 96-well microplate and 150 μl of freshly prepared 3 mM L-DOPA was added. The absorbance was then measured kinetically at 475 nm every 30 seconds for 30 minutes at 30° C. using microplate reader (Versamax®). The % inhibition of tyrosinase activity was calculated by determining melanin formation rates from the linear range of the slopes of melanin formation over time for the different samples and calculating % inhibition from the measured velocities of melanin formation.

[9] = test system: HaCaT cells; details: human, 48 h, 10 μM
Description: Briefly, 2×10^4 cells/well were seeded in 96-well plates and after 24 hours, the compounds at concentrations of 5-25 μM were added to the wells and incubated for 48 hours. Absorbance was read after 1 hour of incubation of plates and results were expressed as % of control.

[10] = test system: normal human dermal fibroblasts (NHDF); assay: MTS cytotoxicity test with human dermal fibroblasts; details: 48 hours
Description: Briefly 5×10^3 cells/well were plated in 96 wells and compounds added for 48 hours. MTS assay was then conducted and plate incubated for 1 hour and then 100 μl of supernatants were aliquoted into 96 well plates and absorbance read at 490 nm using Versamax microplate reader.

[11] = test system: HEM-DP cells; assay: MTS cytotoxicity test with human epidermal melanocytes; assay type: cell-based; details: 5-25 μM, 48 hours
Description: For screening cytotoxicity of PC, THC and CMCs during 48 hours incubation on HEM-DP cells, we conducted MTS cytotoxicity assay. […] MTS reagent was added and incubated for 90 minutes and absorbance was read at 490 nm. The results are expressed as % relative to control.

Structure (SMILES): O=c1cc(CO)occ1O [KA, kojic acid, reference compound]
reduction in melanin content ([1]; 1 mM): 10%
reduction of melanin [2]: 20%

IC50 ([4]; B16F10 cells exposed for 48 hours, non-linear curve fitting, read-out: IC50-Melanin Inhibition): 20.8 µM
inhibition of cellular tyrosinase activity ([8]; 5 μM): significantly (p<0.01) inhibited
inhibition of cellular tyrosinase activity ([8]; 10 μM): significantly (p<0.01) inhibited
Structure (SMILES): COc1cc(/C=C/C(=O)CC(=O)/C=C/c2ccc(O)c(OC)c2)ccc1O [PC, Curcumin]
cytotoxicity, overall ranking [3]: most cytotoxic
increase of cell proliferation ([3]; B16F10, 5 μM, 48 hours, MTS): 13%
cell viability ([3]; 20 μM): 24.44%
cell viability ([3]; 25 μM): 16.55%
inhibition at 10 µM ([4]; B16F10, 10 μM, 48 hours): 32.1%
copper chelating activity [5]: did not show any effect
reduction of intracellular ROS ([6]; B16F10, 10 μM): 24%
inhibition of MITF protein levels [7]: ≤ 30%
effect on melanin content (words) ([1]; nontoxic concentrations tested (PC 5 and 10 μM)): did not show any significant difference
cell viability [9]: 90.12%
cell viability ([10]; 10 μM, MTS): 71.9%
toxicity ([10]; range tested 5-25 μM): significantly toxic

Structure (SMILES): COc1cc(CCC(=O)CC(=O)CCc2ccc(O)c(OC)c2)ccc1O [THC, Tetrahydrocurcumin]
reduction of intracellular ROS ([6]; B16F10, 5 μM): 24%
cytotoxicity [11]: nontoxic
inhibition at 25 µM ([8]; 25 μM): 24%
